Activity calls are given as the source filed them. The calls are words filed in the database; no cut-off is given here.
Experiments:
[1] = tested on: Klebsiella aerogenes; assay: Additive antibacterial activity against Enterobacter aerogenes in presence of doxycycline by checkerboard microtiter plate assay; format: functional
[2] = tested on: Acinetobacter baumannii; assay: Bactericidal activity against Acinetobacter baumannii incubated for overnight; format: functional
[3] = tested on: Klebsiella pneumoniae; assay: Synergistic antibacterial activity against Klebsiella pneumoniae expressing NDM1 in presence of meropenem by checkerboard microtiter plate assay; format: functional
[4] = tested on: Vibrio alginolyticus; assay: Bactericidal activity against Vibrio alginolyticus incubated overnight; format: functional
[5] = tested on: Pseudomonas aeruginosa; assay: Additive antibacterial activity against Pseudomonas aeruginosa assessed as fractional inhibitory concentration in presence of doxycycline by checkerboard microtiter plate assay; format: functional
[6] = tested on: Vibrio vulnificus; assay: Antibacterial activity against Vibrio vulnificus infected in BALB/c mouse wound infection model assessed as reduction in bacterial infection at 6.25 ug per animal administered 12 hrs post infection and measured for 14 days; format: functional, organism-based; conditions: dose 6.25 µg, time 14.0 day
[7] = tested on: Klebsiella aerogenes; assay: Additive antibacterial activity against Enterobacter aerogenes assessed as doxycycline MIC by checkerboard microtiter plate assay; format: functional
[8] = tested on: Escherichia coli; assay: Additive antibacterial activity against Escherichia coli assessed as fractional inhibitory concentration in presence of doxycycline by checkerboard microtiter plate assay; format: functional
[9] = tested on: Streptococcus iniae; assay: Antibacterial activity against Streptococcus iniae in presence of human serum; format: functional, organism-based
[10] = tested on: Vibrio vulnificus; assay: Antibacterial activity against Vibrio vulnificus infected in BALB/c mouse wound infection model assessed as survival at 6.25 ug per animal administered 12 hrs post infection and measured for 14 days; format: functional; conditions: dose 6.25 µg; time 14 day
[11] = tested on: Klebsiella pneumoniae; assay: Synergistic antibacterial activity against Klebsiella pneumoniae expressing NDM1 assessed as fractional inhibitory concentration in presence of meropenem by checkerboard microtiter plate assay; format: functional
[12] = tested on: Vibrio vulnificus; assay: Antibacterial activity against Vibrio vulnificus infected in BALB/c mouse wound infection model assessed as reduction in wound infection rate at 6.25 ug per animal administered 12 hrs post infection and measured for 14 days; format: functional, organism-based; conditions: dose 6.25 µg, time 14.0 day
[13] = tested on: Klebsiella aerogenes; assay: Additive antibacterial activity against Enterobacter aerogenes assessed as fractional inhibitory concentration in presence of doxycycline by checkerboard microtiter plate assay; format: functional
[14] = tested on: Vibrio vulnificus; assay: Bactericidal activity against Vibrio vulnificus 204 at MIC after 5 mins; format: functional, organism-based
[15] = tested on: Klebsiella pneumoniae; assay: Synergistic antibacterial activity against Klebsiella pneumoniae expressing NDM1 assessed as meropenem MIC by checkerboard microtiter plate assay; format: functional
[16] = tested on: Escherichia coli; assay: Additive antibacterial activity against Escherichia coli in presence of doxycycline by checkerboard microtiter plate assay; format: functional
[17] = tested on: Streptococcus iniae; assay: Synergistic antibacterial activity against Streptococcus iniae in presence of doxycycline by checkerboard microtiter plate assay; format: functional
[18] = tested on: Pseudomonas aeruginosa; assay: Additive antibacterial activity against Pseudomonas aeruginosa assessed as doxycycline MIC by checkerboard microtiter plate assay; format: functional
[19] = tested on: Escherichia coli; assay: Additive antibacterial activity against Escherichia coli assessed as doxycycline MIC by checkerboard microtiter plate assay; format: functional
[20] = tested on: Pseudomonas aeruginosa; assay: Additive antibacterial activity against Pseudomonas aeruginosa in presence of doxycycline by checkerboard microtiter plate assay; format: functional
[21] = tested on: Acinetobacter baumannii; assay: Antibacterial activity against Acinetobacter baumannii; format: functional
[22] = tested on: Escherichia coli; assay: Synergistic antibacterial activity against Escherichia coli assessed as doxycycline MIC; format: functional
[23] = tested on: Pseudomonas aeruginosa; assay: Antibacterial activity against Pseudomonas aeruginosa assessed as fractional inhibitory concentration in presence of doxycycline; format: functional
[24] = tested on: Pseudomonas aeruginosa; assay: Antibacterial activity against Pseudomonas aeruginosa assessed as doxycycline MIC; format: functional
[25] = tested on: Escherichia coli; assay: Synergistic antibacterial activity against Escherichia coli assessed as fractional inhibitory concentration in presence of doxycycline; format: functional
[26] = tested on: Vibrio vulnificus; assay: Antibacterial activity against Vibrio vulnificus infected in BALB/c mouse wound infection model assessed as reduction in wound infection rate at 12.5 ug per animal administered 12 hrs post infection and measured for 14 days; format: functional, organism-based; conditions: dose 12.5 µg, time 14.0 day
[27] = tested on: Escherichia coli; assay: Synergistic antibacterial activity against Escherichia coli in presence of doxycycline; format: functional
[28] = tested on: Pseudomonas aeruginosa; assay: Antibacterial activity against Pseudomonas aeruginosa in presence of doxycycline; format: functional
[29] = tested on: Vibrio vulnificus; assay: Antibacterial activity against Vibrio vulnificus infected in BALB/c mouse wound infection model assessed as reduction in bacterial infection at 12.5 ug per animal administered 12 hrs post infection and measured for 14 days; format: functional, organism-based; conditions: dose 12.5 µg, time 14.0 day
[30] = tested on: Vibrio vulnificus; assay: Antibacterial activity against Vibrio vulnificus infected in BALB/c mouse wound infection model assessed as survival at 12.5 ug per animal administered 12 hrs post infection and measured for 14 days; format: functional; conditions: dose 12.5 µg; time 14 day
[31] = tested on: Klebsiella pneumoniae; assay: Additive antibacterial activity against Klebsiella pneumoniae expressing NDM1 assessed as fractional inhibitory concentration in presence of meropenem; format: functional
[32] = tested on: Vibrio vulnificus; assay: Bactericidal activity against Vibrio vulnificus 204 at MIC after 30 mins; format: functional; conditions: 0.5 h
[33] = tested on: Klebsiella aerogenes; assay: Antibacterial activity against Enterobacter aerogenes assessed as doxycycline MIC; format: functional
[34] = tested on: Klebsiella aerogenes; assay: Antibacterial activity against Enterobacter aerogenes assessed as fractional inhibitory concentration; format: functional
[35] = tested on: Klebsiella aerogenes; assay: Antibacterial activity against Enterobacter aerogenes in presence of doxycycline; format: functional
[36] = tested on: Klebsiella pneumoniae; assay: Additive antibacterial activity against Klebsiella pneumoniae expressing NDM1 in presence of meropenem; format: functional
[37] = tested on: Klebsiella pneumoniae; assay: Additive antibacterial activity against Klebsiella pneumoniae expressing NDM1 assessed as meropenem MIC; format: functional

H-FKWKSVLKGVKGFVKGYF-OH
MIC [1]: 6.25 µg/mL
MBC [2]: 3.12 µg/mL
MIC [3]: 6.25 µg/mL
MBC [4]: 6.25 µg/mL
FIC [5]: 1
Activity [6]: Active
MIC [7]: 0.78 µg/mL
FIC [8]: 0.53
Activity [9]: Active
Activity [10]: 20%
FIC [11]: 0.26
Activity [12]: inactive
FIC [13]: 1
Activity [14]: Active
MIC [15]: 3.12 µg/mL
MIC [16]: 3.12 µg/mL
MIC [17]: 0.024 µg/mL
MIC [18]: 6.25 µg/mL
MIC [19]: 0.024 µg/mL
MIC [20]: 12.5 µg/mL
MIC [21]: 3.12 µg/mL

H-KKCIAKAILKKAKKLLKKLVNP-OH
MBC [2]: 1.56 µg/mL
MBC [4]: 6.25 µg/mL
MIC [22]: 0.195 µg/mL
FIC [23]: 1.12
MIC [24]: 1.56 µg/mL
FIC [25]: 0.5
Activity [26]: inactive
MIC [27]: 6.25 µg/mL
MIC [28]: 25 µg/mL
Activity [29]: Active
Activity [30]: 80%
FIC [31]: 0.51
Activity [32]: 100%
MIC [33]: 0.048 µg/mL
MIC [17]: 0.048 µg/mL
FIC [34]: 1.03
MIC [35]: 6.25 µg/mL
MIC [36]: 12.5 µg/mL
MIC [37]: 3.12 µg/mL
MIC [21]: 3.12 µg/mL

Reference: ChEMBL document CHEMBL5346873, “Strategic modification of low-activity natural antimicrobial peptides confers antibacterial potential in vitro and in vivo” (Eur J Med Chem, 2023)
